Reference: PMC4406157, “Irreversible endo-Selective Diels–Alder Reactions of Substituted Alkoxyfurans: A General Synthesis of endo-Cantharimides” (Chemistry (Weinheim an Der Bergstrasse, Germany), 2015)

Assays:
[1] = biological target: KCNH2 (human Ether-à-go-go-Related Gene) (Homo sapiens, UniProt Q12809); assay: KCNH2 (hERG) Human Antagonist Barracuda Electrophysiology Population Patch Clamp; assay type: cell-based; conditions: read-out: IC50 hERG receptor (KCNH2 antagonist)
Source text: (§1) An important challenge for drug development is the generation of novel heterocyclic building blocks with suitable properties for use in screening and medicinal chemistry programs.[34] The cantharimides accessed using this methodology have appropriate physicochemical properties for lead-like compounds, including lipophilicity,[35] molecular weight and polar surface area[36] (Figure 3). Another attractive feature of these scaffolds is the high proportion of sp^3-hybridized carbon atoms, which is typically associated with improved protein binding selectivity and frequency, better solubility and a reduced chance of off-target effects.[37] Indeed, cantharimides 7, 10, endo-3 f and exo-3 f were screened against the hERG receptor (IC50>50 μM) and the aryl hydrocarbon receptor (EC50>100 μM), which are responsible for common off target effects, and no affinity was observed.
Compound Assay Parameter Value/µM
endo-3f KCNH2 (human Ether -à-go-go-Related Gene) Human Antagonist IC50 >50 […]
(§2) (1 picture or pasted object on this page, not shown here)

[2] = biological target: T1, Aryl Hydrocarbon Receptor (AhR) (Homo sapiens, UniProt P35869); assay: Aryl Hydrocarbon Receptor (AhR) Human LS180 CYP1A1 FRET; assay type: cell-based; conditions: LS180 cells
T1 construct: LS180 CYP1A1 FRET; endogenous in cells; host or cells: LS180
T1 sequence (P35869 11-848): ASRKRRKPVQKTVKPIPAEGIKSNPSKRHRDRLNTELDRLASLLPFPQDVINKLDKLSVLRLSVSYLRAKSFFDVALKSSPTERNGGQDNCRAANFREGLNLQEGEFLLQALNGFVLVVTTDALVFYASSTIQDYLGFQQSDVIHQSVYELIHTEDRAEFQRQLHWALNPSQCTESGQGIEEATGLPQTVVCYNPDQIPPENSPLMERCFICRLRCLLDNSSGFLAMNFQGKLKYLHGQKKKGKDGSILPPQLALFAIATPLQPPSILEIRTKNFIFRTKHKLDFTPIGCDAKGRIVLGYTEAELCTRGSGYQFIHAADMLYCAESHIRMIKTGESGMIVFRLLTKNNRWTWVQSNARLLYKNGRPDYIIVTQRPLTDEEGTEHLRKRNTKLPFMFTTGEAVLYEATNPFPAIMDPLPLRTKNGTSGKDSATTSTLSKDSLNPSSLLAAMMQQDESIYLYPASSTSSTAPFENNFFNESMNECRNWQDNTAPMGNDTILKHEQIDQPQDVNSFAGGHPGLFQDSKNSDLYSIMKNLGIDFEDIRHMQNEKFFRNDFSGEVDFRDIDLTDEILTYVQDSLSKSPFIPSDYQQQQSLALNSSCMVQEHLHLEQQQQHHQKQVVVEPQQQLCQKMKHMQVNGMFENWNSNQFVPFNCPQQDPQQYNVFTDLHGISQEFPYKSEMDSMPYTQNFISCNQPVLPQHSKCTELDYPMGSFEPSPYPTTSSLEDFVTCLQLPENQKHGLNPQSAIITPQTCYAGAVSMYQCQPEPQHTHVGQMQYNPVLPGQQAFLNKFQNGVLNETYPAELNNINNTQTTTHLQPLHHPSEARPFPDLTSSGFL
Source text: as §1, with “observed. […]” for “observed.”
endo-3f Aryl Hydrocarbon Receptor (AhR) Human LS180 CYP1A1 FRET - EC50 >100
exo-3f Aryl Hydrocarbon Receptor (AhR) Human LS180 CYP1A1 FRET - EC50 >100
7 Aryl Hydrocarbon Receptor (AhR) Human LS180 CYP1A1 FRET - EC50 >100
10 Aryl Hydrocarbon Receptor (AhR) Human LS180 CYP1A1 FRET - EC50 >100
as §2

[3] = in vitro clearance in the presence of human microsomes; assay type: in vitro ADME; conditions: IVC testing performed by Cyprotex
Source text: as §1
[38] IVC testing performed by Cyprotex, 15 Beech Lane, Macclesfield, Cheshire, SK10 2DR, UK

Chain of KCNH2 (human Ether-à-go-go-Related Gene) (Q12809 whole entry): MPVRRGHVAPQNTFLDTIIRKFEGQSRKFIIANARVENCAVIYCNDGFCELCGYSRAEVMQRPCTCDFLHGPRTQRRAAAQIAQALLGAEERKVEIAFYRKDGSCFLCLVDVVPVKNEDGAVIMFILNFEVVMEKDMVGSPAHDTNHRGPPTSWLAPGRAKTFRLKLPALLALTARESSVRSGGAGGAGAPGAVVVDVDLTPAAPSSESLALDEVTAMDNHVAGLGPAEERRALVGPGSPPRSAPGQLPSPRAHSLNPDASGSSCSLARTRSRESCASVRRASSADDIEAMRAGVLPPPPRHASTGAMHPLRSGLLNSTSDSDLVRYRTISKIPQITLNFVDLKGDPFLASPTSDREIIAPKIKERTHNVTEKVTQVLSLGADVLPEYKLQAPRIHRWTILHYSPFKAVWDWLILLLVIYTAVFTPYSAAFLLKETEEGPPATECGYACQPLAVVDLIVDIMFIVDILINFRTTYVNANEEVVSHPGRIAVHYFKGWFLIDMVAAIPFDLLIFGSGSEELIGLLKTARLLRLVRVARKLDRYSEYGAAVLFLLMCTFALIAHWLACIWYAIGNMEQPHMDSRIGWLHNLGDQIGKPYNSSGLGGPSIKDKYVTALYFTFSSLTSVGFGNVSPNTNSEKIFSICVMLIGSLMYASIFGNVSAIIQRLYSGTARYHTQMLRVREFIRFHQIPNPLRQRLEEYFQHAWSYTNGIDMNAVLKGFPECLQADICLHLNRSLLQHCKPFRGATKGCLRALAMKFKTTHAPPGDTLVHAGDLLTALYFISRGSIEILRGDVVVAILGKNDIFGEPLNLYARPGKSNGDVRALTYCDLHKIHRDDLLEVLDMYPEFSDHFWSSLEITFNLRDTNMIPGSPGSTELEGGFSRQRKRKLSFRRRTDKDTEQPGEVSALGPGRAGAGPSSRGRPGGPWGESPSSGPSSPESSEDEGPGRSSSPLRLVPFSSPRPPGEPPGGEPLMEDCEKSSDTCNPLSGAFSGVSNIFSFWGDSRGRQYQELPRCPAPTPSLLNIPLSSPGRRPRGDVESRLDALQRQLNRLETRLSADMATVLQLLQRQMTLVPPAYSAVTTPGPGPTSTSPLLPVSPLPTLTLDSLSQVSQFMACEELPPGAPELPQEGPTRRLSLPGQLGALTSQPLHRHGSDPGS

SMILES | IC50 [1] [µM] | EC50 [2] [µM] | in vitro clearance [3] [mL/min/g]
CN1C(=O)C2C3CC(O)C(c4ccccc4)(O3)C2C1=O (stereo not drawn) [compound 10] | > 50 | > 100 | < 0.53
CCOC1=CC2OC1(c1ccccc1)C1C(=O)N(C)C(=O)C21 (stereo not drawn) [endo-3 f] | > 50 | > 100 | 
CCOC1=C[C@H]2O[C@]1(c1ccccc1)[C@@H]1C(=O)N(C)C(=O)[C@@H]12 [exo-3 f] | > 50 | > 100 | 
CCOC1CC2OC1(c1ccccc1)C1C(=O)N(C)C(=O)C21 (stereo not drawn) [compound 7] | > 50 | > 100 | 
